We go through four compounds from patent US12545685B2 (Daiichi Sankyo Company, Limited, priority 2011, dated 2026).

SMILES strings stand for the structures. pIC50: −log10 of the molar value.

For series [1] the following is noted: human, microsomes, 0.5 h.
Description: 100 μl of 100 mM phosphate buffer solution (pH 7.4) containing 3 μM test compound was added to 100 μl of reaction solution containing 100 mM phosphate buffer solution (pH 7.4), 30 mM glucose 6-phosphate, 10 mM MgCl2·6H2O, 3 units/ml glucose 6-phosphate 1-dehydrogenase, and 0.3 to 1.5 mg/ml human liver microsomes and the mixture was incubated at 37° C. for 20 minutes. Then 70 μl of 100 mM phosphate buffer solution (pH 7.4) containing 3 mM NADP+ was added and the mixture was further incubated at 37° C. for 30 minutes to conduct a microsomal metabolism test. The compound was quantified by the internal standard method using a quadrupole mass spectrometer connected to a high performance liquid chromatography apparatus. The metabolic stability (residual percentage of compound: MS %) was determined according to the following formula;
(peak area ratio: peak area of test compound divided by that of internal standard substance)
The test system of series [2] is human lung cancer-derived cell line NCI-H460 having wild-type p53. Description: Cell growth inhibition assay (MTT). Format: cell-based. To be noted: 72 h, NCI-H460 cells, 3 days culture, values given as ranges, read-out: 50% growth inhibition concentration (GI50 value). The method in brief: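 NCI-H460 cells (wild-type p53) seeded at 500 cells/well in RPMI1640 with 10% FBS, then treated the next day and grown 3 days at 37 °C. MTT read-out at OD 540 nm (660 nm reference), taken at dosing and at day 3. GI50 derived from T/C (%) dose-response curves.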

The target in series [3] is T1, Mdm2/p53 binding (GST-Mdm2 / His-p53) (Homo sapiens, UniProt Q00987, L33E).
T1 construct: Mdm2 partial protein having Mdm2 amino acids at positions 25 to 108
T1 sequence (Q00987 25-108 L33E): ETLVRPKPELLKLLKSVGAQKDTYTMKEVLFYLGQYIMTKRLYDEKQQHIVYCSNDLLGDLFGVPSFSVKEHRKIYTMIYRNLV
Description: Mdm2/p53 binding assay (HTRF, His-p53 and GST-Mdm2). To be noted: His-p53 (aa 1-132) and GST-Mdm2 (aa 25-108, L33E) 6.25 nM each; 25°C, 1 hour; values given as ranges. A digest of the protocol:
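Binding was detected by HTRF (ex 320 nm, em 620/665 nm) after 1 h at 25 °C, using Eu-cryptate anti-GST and XL665 anti-His antibodies. The protein pair was GST-Mdm2 (residues 25–108, L33E) with His-p53 (residues 1–132), each 6.25 nM in the protein dilution. T/C used no-compound control and no-p53 background, and IC50 came from sigmoid fitting.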
(Time-resolved FRET reads energy transfer from a long-lived donor to a nearby acceptor.)

As to `CC1(C)CCC2(CC1)N[C@@H](C(=O)N[C@H]1CC[C@H](c3nnco3)CC1)[C@H](c1cccc(Cl)c1F)[C@]21C(=O)Nc2cc(Cl)ncc21` (relative stereo) [Example 108, (3′R, 4′S, S′R)-6″-chloro-4′-(3-chloro-2-fluorophenyl)-4,4-dimethyl-N-[trans-4-(1,3,4-oxadiazol-2-yl)cyclohexyl]-2″-oxo-1″,2″-dihydrodispiro[cyclohexane-1,2′-pyrrolidine-3′,3″-pyrrolo[3,2-c]pyridine]-5′-carboxamide], the “metabolic stability (residual percentage of compound: MS %)” value in series [1] is 70-100%.
In the case of `CC1(C)CCC2(CC1)N[C@@H](C(=O)N[C@@H]1CCC(C)(C(=O)O)OC1)[C@H](c1ccnc(Cl)c1F)[C@]21C(=O)Nc2cc(Cl)ccc21` (stereo partly drawn) [Example 186, (5R)-5-({[(3′R, 4′S,5′R)-6″-chloro-4′-(2-chloro-3-fluoropyridin-4-yl)-4,4-dimethyl-2″-oxo-1″,2″-dihydrodispiro[cyclohexane-1,2′-pyrrolidine-3′,3″-indole]-5′-yl]carbonyl}amino)-2-methyltetrahydro-2H-pyran-2-carboxylic acid], the GI50 in series [2] is 1000 to 5000 nM. Moreover, the pIC50 – broadly, the negative decadic logarithm of the IC50, by convention in mol/L – in series [3] is 7.30 to 9.00.
Taken in the same sequence, the figures for `CC1(C)CCC2(CC1)N[C@@H](C(=O)NC1(C)CC[C@@H](C(=O)O)OC1)[C@H](c1ccnc(Cl)c1F)[C@]21C(=O)Nc2cc(Cl)ccc21` (stereo partly drawn) [Example 188, (2S)-5-({[(3′R, 4′S,5′R)-6″-chloro-4′-(2-chloro-3-fluoropyridin-4-yl)-4,4-dimethyl-2″-oxo-1″,2″-dihydrodispiro[cyclohexane-1,2′-pyrrolidine-3′,3″-indole]-5′-yl]carbonyl}amino)-5-methyltetrahydro-2H-pyran-2-carboxylic acid] were 100 to 500 nM and 7.30 to 9.00.
For `CC1(C)CCC2(CC1)N[C@@H](C(=O)N[C@@H]1CC[C@@H](C(N)=O)OC1)[C@H](c1ccnc(Cl)c1F)[C@]21C(=O)Nc2cc(Cl)ncc21` [Example 191], in series [2], the GI50 lay within 100 to 500 nM. In series [3], this compound showed a pIC50 of 7.30 to 9.00.
